Values after ≈ are worked out from the molar mass of the structure shown. Read-outs that look alike come from different tables or passages of the source. Blank lines part the entries; values can stand above or below the compound they belong to.
Legend:
[1] = test system: human red blood cells; assay: Hemolysis assay; format: cell-based; details: 1% hematocrit in PBS pH 7.4, 30 min at 23 °C, from Figure 4
Protocol: Dendrimer-induced hemolysis was measured as previously reported. Briefly, human red blood cells obtained from healthy volunteers, were suspended in phosphate buffered saline (PBS, pH 7.4). Prepared suspension of 1% hematocrit was incubated with serial concentration of dendrimers for 30 min at 23 °C. After centrifugation (4,000 rpm, 5 min) the absorbance of supernatant was measured at 540 nm (Spectrostar Omega, BMG Labtech, Ortenberg, Germany). A value of 100% hemolysis was determined by incubation of erythrocytes with double-distilled water (30 min at 23 °C). In a control experiment, cells were incubated in buffer without peptide and absorbance at 540 nm value was used as a blank:
A: Absorbance of the samples incubated with dendrimers;
Ab: Absorbance of the blank samples;
A100%: Absorbance of the reference;
Ac: Absorbance of red blood cells in PBS, hematocrit 1%.

[2] = test system: S. aureus ATCC 25923; assay: microbe, parasite or virus in culture
Protocol: (§1) The bacteria Staphylococcus aureus ATCC 25923, Staphylococcus aureus ATCC 43300,Escherichia coli ATCC 25922 and Pseudomonas aeruginosa ATCC 27853 were cultivated on tryptone-soy agar (TSA; Oxoid) for 24 h at 37 °C. Broth microdilution susceptibility tests were performed as described in the Committee Laboratory Standards (CLSI) reference method M07-A8 [41]. Bacteria inocula (5 µL) containing 10^6 CFU/mL were used. The final concentration of dendrimers ranged from 256 to 2 µg/mL, polymyxin B and penicillin G from 8 to 0,15 µg/mL (or 5.8 to 0.1 µM and 21.5 to 0.4 µM, respectively for polymyxin B and penicillin G) were the reference compounds. The plates were incubated at 35 °C and were read after 18 or 24 h depending on the bacterial strain. Minimal Inhibitory Concentrations (MICs) were defined as the lowest drug concentration that reduced the growth by 100%.

[3] = test system: P. aeruginosa ATCC 27853
Protocol: as §1

[4] = test system: S. aureus ATCC 43300
Protocol: as §1

[5] = test system: E. coli ATCC 25922
Protocol: as §1

[6] = test system: E. coli ATCC 25922; format: cell-based, Escherichia coli; details: for Activity (MIC) at 200 µM Na+ or K+ concentration / Change of bioactivity on increase of Ca2+ and Mg2+ concentration / Sensitivity of MIC to increase of Na+ or K+ concentration: E. coli ATCC 25922; for Activity (MIC) at 200 µM Na+ or K+ concentration / Sensitivity of MIC to increase of Na+ or K+ concentration: triplicate; for Change of bioactivity on increase of Ca2+ and Mg2+ concentration: Ca2+ and Mg2+ up to 5 mM; for Sensitivity of MIC to increase of Na+ or K+ concentration: Na+ or K+ up to 100 µM, CAMHB with added NaCl or KCl
Protocol: as §1
The effect of salt concentration on the antimicrobial activity of two dendrimers was tested by determining the MICs under a variety of cations concentrations. CAMHB used in the assay was altered by the addition of salt. NaCl or KCl were added to the media to a final concentrations of 10, 50, 100, 200, 500 mM, wheareas CaCl2 or MgCl2 were added to the media to a final concentrations of 0.5, 1.5, 2.5, 5.5, 10.5, and 20.5 mM. Additionally, similar test was performed using MHB (without Ca^2+, Mg^2+) for divalent cations Ca^2+ and Mg^2+. Experiment was performed in triplicate.

[7] = broth microdilution CLSI M07-A8, CAMHB with 0.5 mM Ca2+ and Mg2+, no K+ and Na+, 35 °C, read after 18 or 24 h, MIC = lowest concentration reducing growth by 100%
[8] = broth microdilution CLSI M07-A8, CAMHB with 0.5 mM Ca2+ and Mg2+, 35 °C, 18 or 24 h
[9] = methicillin-resistant strain, broth microdilution CLSI M07-A8, CAMHB with 0.5 mM Ca2+ and Mg2+, 35 °C, 18 or 24 h

Compound: NCCCC[C@H](NC(=O)OCc1ccccc1Cl)C(=O)NCCNC(=O)CCN(CCC[C@@H](C(=O)Nc1cccnc1)N(CCC(=O)NCCNC(=O)[C@H](CCCCN)NC(=O)OCc1ccccc1Cl)CCC(=O)NCCNC(=O)[C@H](CCCCN)NC(=O)OCc1ccccc1Cl)CCC(=O)NCCNC(=O)[C@H](CCCCN)NC(=O)OCc1ccccc1Cl [Dendrimer 3a]
Hemotoxicity (level) [1]: much lower toxicity and low | Minimal inhibitory concentration (MIC), S. aureus ATCC 25923 [2, 7]: 2.85 µM (≈ 5.28 µg/mL) | Minimal inhibitory concentration (MIC), P. aeruginosa ATCC 27853 [3, 8]: >252 µM | Minimal inhibitory concentration (MIC), S. aureus ATCC 43300 [4, 9]: >252 µM | Minimal inhibitory concentration (MIC), E. coli ATCC 25922 [5, 8]: >252 µM

Compound: NCCCC[C@H](NC(=O)OCc1ccccc1Cl)C(=O)NCCNC(=O)CCN(CCC[C@@H](C(=O)NCCc1c[nH]c2ccccc12)N(CCC(=O)NCCNC(=O)[C@H](CCCCN)NC(=O)OCc1ccccc1Cl)CCC(=O)NCCNC(=O)[C@H](CCCCN)NC(=O)OCc1ccccc1Cl)CCC(=O)NCCNC(=O)[C@H](CCCCN)NC(=O)OCc1ccccc1Cl [Dendrimer 3b]
Minimal inhibitory concentration (MIC), S. aureus ATCC 25923 [2, 7]: 1.87 µM (≈ 3.59 µg/mL) | Minimal inhibitory concentration (MIC), P. aeruginosa ATCC 27853 [3, 8]: 51 µM (≈ 97.8 µg/mL) | Minimal inhibitory concentration (MIC), S. aureus ATCC 43300 [4, 9]: 12.1 µM (≈ 23.2 µg/mL) | Minimal inhibitory concentration (MIC), E. coli ATCC 25922 [5, 8]: 12.1 µM (≈ 23.2 µg/mL) | MIC in presence of Ca2+ ([6]; ATCC 25922, 24 h): 119.8 µM | Activity (MIC) at 200 µM Na+ or K+ concentration [6]: retained much activity | Change of bioactivity on increase of Ca2+ and Mg2+ concentration [6]: slow decrease | Sensitivity of MIC to increase of Na+ or K+ concentration [6]: not sensitive

Compound: NCCCC[C@H](NC(=O)OCc1ccccc1Cl)C(=O)NCCNC(=O)CCN(CCC[C@@H](C(=O)NCCc1cnc[nH]1)N(CCC(=O)NCCNC(=O)[C@H](CCCCN)NC(=O)OCc1ccccc1Cl)CCC(=O)NCCNC(=O)[C@H](CCCCN)NC(=O)OCc1ccccc1Cl)CCC(=O)NCCNC(=O)[C@H](CCCCN)NC(=O)OCc1ccccc1Cl [Dendrimer 3c]
Minimal inhibitory concentration (MIC), S. aureus ATCC 25923 ([2]; ATCC 25923, 24 h): 24.7 µM (≈ 46.2 µg/mL) | Minimal inhibitory concentration (MIC), P. aeruginosa ATCC 27853 ([3]; ATCC 27853, 24 h): 141 µM (≈ 264 µg/mL) | Minimal inhibitory concentration (MIC), S. aureus ATCC 43300 ([4]; ATCC 43300, 24 h): 141 µM (≈ 264 µg/mL) | Minimal inhibitory concentration (MIC), E. coli ATCC 25922 ([5]; ATCC 25922, 24 h): 141 µM (≈ 264 µg/mL)

Compound: CCCCCCCCCCCCNC(=O)[C@H](CCCN(CCC(=O)NCCNC(=O)[C@H](CCCCN)NC(=O)OCc1ccccc1Cl)CCC(=O)NCCNC(=O)[C@H](CCCCN)NC(=O)OCc1ccccc1Cl)N(CCC(=O)NCCNC(=O)[C@H](CCCCN)NC(=O)OCc1ccccc1Cl)CCC(=O)NCCNC(=O)[C@H](CCCCN)NC(=O)OCc1ccccc1Cl [Dendrimer 3d]
Minimal inhibitory concentration (MIC), S. aureus ATCC 25923 ([2]; ATCC 25923, 24 h): 1.85 µM (≈ 3.59 µg/mL) | Minimal inhibitory concentration (MIC), E. coli ATCC 25922 ([5]; ATCC 25922, 24 h): 1.85 µM (≈ 3.59 µg/mL)

Compound: N[C@@H](CCCCNC(=O)OCc1ccccc1Cl)C(=O)NCCNC(=O)CCN(CCC[C@@H](C(=O)Nc1cccnc1)N(CCC(=O)NCCNC(=O)[C@@H](N)CCCCNC(=O)OCc1ccccc1Cl)CCC(=O)NCCNC(=O)[C@@H](N)CCCCNC(=O)OCc1ccccc1Cl)CCC(=O)NCCNC(=O)[C@@H](N)CCCCNC(=O)OCc1ccccc1Cl [Dendrimer 3e]
Hemotoxicity (level) [1]: highest hemotoxicity and high | Minimal inhibitory concentration (MIC), S. aureus ATCC 25923 [2, 7]: 16.6 µM (≈ 30.7 µg/mL) | Minimal inhibitory concentration (MIC), P. aeruginosa ATCC 27853 [3, 8]: 142 µM (≈ 263 µg/mL) | Minimal inhibitory concentration (MIC), S. aureus ATCC 43300 [4, 9]: 142 µM (≈ 263 µg/mL) | Minimal inhibitory concentration (MIC), E. coli ATCC 25922 [5, 8]: 142 µM (≈ 263 µg/mL)

Compound: N[C@@H](CCCCNC(=O)OCc1ccccc1Cl)C(=O)NCCNC(=O)CCN(CCC[C@@H](C(=O)NCCc1c[nH]c2ccccc12)N(CCC(=O)NCCNC(=O)[C@@H](N)CCCCNC(=O)OCc1ccccc1Cl)CCC(=O)NCCNC(=O)[C@@H](N)CCCCNC(=O)OCc1ccccc1Cl)CCC(=O)NCCNC(=O)[C@@H](N)CCCCNC(=O)OCc1ccccc1Cl [Dendrimer 3f]
Minimal inhibitory concentration (MIC), S. aureus ATCC 25923 [2, 7]: 0.93 µM (≈ 1.78 µg/mL) | Minimal inhibitory concentration (MIC), P. aeruginosa ATCC 27853 [3, 8]: 60 µM (≈ 115 µg/mL) | Minimal inhibitory concentration (MIC), S. aureus ATCC 43300 [4, 9]: 20.4 µM (≈ 39.1 µg/mL) | Minimal inhibitory concentration (MIC), E. coli ATCC 25922 [5, 8]: 7.9 µM (≈ 15.2 µg/mL) | MIC in presence of Mg2+ ([6]; ATCC 25922, 24 h): 119.8 µM | Activity (MIC) at 200 µM Na+ or K+ concentration [6]: retained much activity | Change of bioactivity on increase of Ca2+ and Mg2+ concentration [6]: slow decrease | Sensitivity of MIC to increase of Na+ or K+ concentration [6]: not sensitive

Compound: N[C@@H](CCCCNC(=O)OCc1ccccc1Cl)C(=O)NCCNC(=O)CCN(CCC[C@@H](C(=O)NCCc1cnc[nH]1)N(CCC(=O)NCCNC(=O)[C@@H](N)CCCCNC(=O)OCc1ccccc1Cl)CCC(=O)NCCNC(=O)[C@@H](N)CCCCNC(=O)OCc1ccccc1Cl)CCC(=O)NCCNC(=O)[C@@H](N)CCCCNC(=O)OCc1ccccc1Cl [Dendrimer 3g]
Minimal inhibitory concentration (MIC), S. aureus ATCC 25923 ([2]; ATCC 25923, 24 h): 51 µM (≈ 95.3 µg/mL) | Minimal inhibitory concentration (MIC), P. aeruginosa ATCC 27853 ([3]; ATCC 27853, 24 h): 211 µM (≈ 394 µg/mL) | Minimal inhibitory concentration (MIC), S. aureus ATCC 43300 ([4]; ATCC 43300, 24 h): 16.4 µM (≈ 30.7 µg/mL) | Minimal inhibitory concentration (MIC), E. coli ATCC 25922 ([5]; ATCC 25922, 24 h): 211 µM (≈ 394 µg/mL)

Compound: CCCCCCCCCCCCNC(=O)[C@H](CCCN(CCC(=O)NCCNC(=O)[C@@H](N)CCCCNC(=O)OCc1ccccc1Cl)CCC(=O)NCCNC(=O)[C@@H](N)CCCCNC(=O)OCc1ccccc1Cl)N(CCC(=O)NCCNC(=O)[C@@H](N)CCCCNC(=O)OCc1ccccc1Cl)CCC(=O)NCCNC(=O)[C@@H](N)CCCCNC(=O)OCc1ccccc1Cl [Dendrimer 3h]
Minimal inhibitory concentration (MIC), S. aureus ATCC 25923 ([2]; ATCC 25923, 24 h): 3.7 µM (≈ 7.19 µg/mL) | Minimal inhibitory concentration (MIC), P. aeruginosa ATCC 27853 ([3]; ATCC 27853, 24 h): 32 µM (≈ 62.2 µg/mL) | Minimal inhibitory concentration (MIC), S. aureus ATCC 43300 ([4]; ATCC 43300, 24 h): 1.85 µM (≈ 3.59 µg/mL) | Minimal inhibitory concentration (MIC), E. coli ATCC 25922 ([5]; ATCC 25922, 24 h): 7.9 µM (≈ 15.4 µg/mL)

MIC ([2]; Staphylococcus aureus, ATCC25923, read-out: Minimal inhibitory concentration (MIC), S. aureus ATCC 25923): 6.6 µM (≈ 2.21 µg/mL)
Compound: CC1(C)S[C@@H]2[C@H](NC(=O)Cc3ccccc3)C(=O)N2[C@H]1C(=O)O [Penicillin G, reference compound]

— publication PMC6270063, “Novel Antimicrobial Peptide Dendrimers with Amphiphilic Surface and Their Interactions with Phospholipids — Insights from Mass Spectrometry” (Molecules, 2013)
